# Measured values: ChEMBL document CHEMBL1137757, “Combinatorial chemistry in the agrosciences” (Bioorg Med Chem, 2009)
# Columns and labels:
# [1] = Inhibition of Arabidopsis 4-hydroxyphenylpyruvate dioxygenase
# [2] = biological target: 4-hydroxyphenylpyruvate dioxygenase (Rattus norvegicus, UniProt P32755); experiment: Inhibition of rat 4-hydroxyphenylpyruvate dioxygenase
# [3] = Inhibition of anthranilate synthase
# Chain of 4-hydroxyphenylpyruvate dioxygenase (P32755 whole entry): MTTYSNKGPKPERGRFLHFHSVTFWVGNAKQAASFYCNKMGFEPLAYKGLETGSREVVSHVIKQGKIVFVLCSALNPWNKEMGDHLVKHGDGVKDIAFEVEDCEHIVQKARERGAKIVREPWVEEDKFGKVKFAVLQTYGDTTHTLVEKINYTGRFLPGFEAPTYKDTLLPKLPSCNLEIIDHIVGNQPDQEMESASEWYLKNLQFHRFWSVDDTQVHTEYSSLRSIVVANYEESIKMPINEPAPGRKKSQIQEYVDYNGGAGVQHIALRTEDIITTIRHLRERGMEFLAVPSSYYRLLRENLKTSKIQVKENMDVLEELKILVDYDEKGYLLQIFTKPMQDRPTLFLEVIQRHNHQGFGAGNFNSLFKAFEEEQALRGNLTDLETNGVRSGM
IC50 [1] [µM],IC50 [2] [µM],IC50 [3] [µM],SMILES
0.02,3.9,,O=C(NCCCCC1C(=O)/C(=C(\O)C2CC2)C(=O)N1Cc1ccc(F)cc1)c1ccc(Cl)nc1 (stereo unspecified)
0.158,≥ 10,,O=C(NCCCCC1C(=O)/C(=C(\O)C2CCC2)C(=O)N1Cc1ccccc1)Nc1cccc(Cl)c1 (stereo unspecified)
,,3.2,O=C(O)c1cccc(/C(=N/OCCc2ccc(Cl)cc2)c2cccc(C(F)(F)F)c2)c1
,,3.2,O=C(O)COc1ccccc1/C=N/OCc1cc(Cl)ccc1Cl
